Measured values as given in the supplement of paper PMC10307832.

How the values were obtained:
Test in all cases: relative viability (nuclei count vs DMSO), 5 days (fraction); higher = more cells survive
Bortezomib + Linsitinib = compound: CC(C)C[C@H](NC(=O)[C@H](Cc1ccccc1)NC(=O)c1cnccn1)B(O)O [Bortezomib] + C[C@]1(O)C[C@@H](c2nc(-c3ccc4ccc(-c5ccccc5)nc4c3)c3c(N)nccn32)C1 [Linsitinib] (partner 1 µM)
In short: (§1)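 Medians of duplicate plates are given as relative viability. That measure is the nuclei count in treated wells divided by the count in vehicle wells. Counts were taken on 4× images of lung cancer cell lines in 1536-well plates, 5 days after pin-tool dosing the day after seeding with one drug alone or a fixed anchor-drug dose plus five library-drug doses (not always all listed) in √10 steps.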

[1] = compound: CC1=CC(=NN1)NC2=CC(=NC(=N2)/C=C/C3=CC=CC=C3)N4CCN(CC4)C + C[C@@H](Oc1cc(-c2cnn(C3CCNCC3)c2)cnc1N)c1c(Cl)ccc(F)c1Cl [Crizotinib] (partner 1 µM)
In short: as §1

[2] = compound: CC1=CC(=NN1)NC2=CC(=NC(=N2)/C=C/C3=CC=CC=C3)N4CCN(CC4)C + Nc1nc2[nH]cc(CCc3ccc(C(=O)N[C@@H](CCC(=O)O)C(=O)O)cc3)c2c(=O)[nH]1 [Pemetrexed] (partner 0.2 µM)
In short: as §1

Obatoclax + Tozasertib = compound: COC1=CC(c2cc3ccccc3[nH]2)=N/C1=C\c1[nH]c(C)cc1C [Obatoclax] + Cc1cc(Nc2cc(N3CCN(C)CC3)nc(Sc3ccc(NC(=O)C4CC4)cc3)n2)n[nH]1 [Tozasertib] (partner 0.1 µM)
In short: as §1

Cell Line	relative viability (Bortezomib + Linsitinib; first compound 0.0002 µM)	relative viability (Bortezomib + Linsitinib; first compound 0.000632 µM)	relative viability (Bortezomib + Linsitinib; first compound 0.002 µM)	relative viability (Bortezomib + Linsitinib; first compound 0.006325 µM)	relative viability (Bortezomib + Linsitinib; first compound 0.02 µM)	relative viability ([1]; first compound 0.08 µM)	relative viability ([1]; first compound 0.253 µM)	relative viability ([1]; first compound 0.8 µM)	relative viability ([1]; first compound 2.53 µM)	relative viability ([1]; first compound 8 µM)	relative viability ([2]; first compound 0.08 µM)	relative viability ([2]; first compound 0.253 µM)	relative viability ([2]; first compound 0.8 µM)	relative viability ([2]; first compound 2.53 µM)	relative viability ([2]; first compound 8 µM)	relative viability (Obatoclax + Tozasertib; first compound 0.01 µM)	relative viability (Obatoclax + Tozasertib; first compound 0.03162 µM)	relative viability (Obatoclax + Tozasertib; first compound 0.1 µM)	relative viability (Obatoclax + Tozasertib; first compound 0.3162 µM)	relative viability (Obatoclax + Tozasertib; first compound 1 µM)
LCLC-103H	1.06	1.07	1.25	1.09	0.272	0.993	1.19	1.19	1.07	0.302	0.476	0.465	0.458	0.516	0.359	0.498	0.472	0.505	0.477	0.553
LK-2	0.409	0.551	0.353	0.17	0.142	0.193	0.221	0.208	0.262	0.203	0.199	0.288	0.306	0.217	0.0825	0.194	0.175	0.197	0.208	0.149
LOU-NH91	0.995	0.86	0.383	0.285	0.294	0.775	0.757	0.741	0.706	0.403	0.383	0.389	0.391	0.394	0.361	0.658	0.655	0.513	0.598	0.489
LU99A	0.55	–	0.599	0.337	0.149	0.554	0.549	0.452	0.16	0.13	0.187	0.2	0.199	0.202	0.173	0.304	0.28	0.287	0.288	0.233
LXF-289	0.946	0.968	1	0.0941	0.0652	0.817	0.825	0.682	0.23	0.0611	0.872	0.874	0.895	0.615	0.444	0.192	0.216	0.215	0.168	0.131
NCI-H23	–	0.574	0.586	0.276	0.114	0.559	0.603	0.439	0.181	0.108	0.508	0.768	0.542	0.215	0.118	0.378	0.484	0.454	0.301	0.241
NCI-H322M	0.906	–	0.999	0.831	0.294	0.97	0.866	0.817	0.447	0.128	0.615	0.622	0.616	0.308	0.273	0.505	0.451	–	0.463	0.344
NCI-H358	0.755	0.622	0.625	0.162	0.141	0.607	0.478	0.264	0.14	0.11	0.163	0.172	0.173	0.128	0.0753	0.105	0.117	0.0958	0.0729	0.065
